Active and inactive are the calls of the source. The rule behind the calls is not given here.
Legend:
[1] = biological target: T1, Tyrosinase (Homo sapiens, UniProt P14679); test: Inhibition of human tyrosinase using L-DOPA as substrate by spectrophotometer analysis
T1 sequence (P14679 whole entry): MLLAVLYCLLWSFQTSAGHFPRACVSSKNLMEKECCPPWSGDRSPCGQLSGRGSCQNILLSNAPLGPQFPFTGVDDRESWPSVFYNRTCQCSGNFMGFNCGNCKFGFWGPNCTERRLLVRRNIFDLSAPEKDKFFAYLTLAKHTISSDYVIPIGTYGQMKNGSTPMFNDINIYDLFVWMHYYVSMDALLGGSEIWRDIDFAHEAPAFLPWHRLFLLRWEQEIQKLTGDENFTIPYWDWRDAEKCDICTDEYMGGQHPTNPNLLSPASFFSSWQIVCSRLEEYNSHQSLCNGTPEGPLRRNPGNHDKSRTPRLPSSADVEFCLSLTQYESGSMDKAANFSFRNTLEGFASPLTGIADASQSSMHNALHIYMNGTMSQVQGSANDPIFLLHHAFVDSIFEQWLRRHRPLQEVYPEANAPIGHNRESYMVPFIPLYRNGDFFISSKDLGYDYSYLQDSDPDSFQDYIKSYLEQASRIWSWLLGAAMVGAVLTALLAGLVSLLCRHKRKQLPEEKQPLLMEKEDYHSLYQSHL

[2] = biological target: T2, Mushroom tyrosinase (Agaricus bisporus, UniProt O42713+Q00024+C7FF04+C7FF05); test: Inhibition of mushroom tyrosinase using L-DOPA as substrate by spectrophotometer analysis; assay type: protein assay
[3] = biological target: T3, Tyrosinase (Homo sapiens) (UniProt P14679); test: Binding affinity to human Tyrosinase assessed as gibbs free energy change by MM-GBSA method
T3 sequence (whole entry): T1 sequence (P14679 whole entry)

[4] = biological target: Mushroom tyrosinase (Agaricus bisporus) (UniProt O42713+Q00024+C7FF04+C7FF05); test: Binding affinity to mushroom tyrosinase assessed as gibbs free energy change by MM-GBSA method; assay type: protein assay
[5] = biological target: T1, Tyrosinase; test: Binding affinity to human tyrosinase using l-DOPA as substrate assessed as inhibition constant by Michaelis-Menten plot analysis
[6] = biological target: T2, Mushroom tyrosinase; test: Inhibition of mushroom tyrosinase using L-DOPA as substrate; assay type: protein assay
[7] = biological target: T3, Tyrosinase (Homo sapiens); test: Competitive inhibition of human tyrosinase using L-DOPA substrate upto 2.08 uM by Lineweaver-Burk plot analysis

IC50 [1] [µM] | IC50 [2] [µM] | deltaG [3] [kcal/mol] | deltaG [4] [kcal/mol] | Ki [5] [nM] | IC50 [6] [µM] | inhibition [7] | Compound
3.8 | 108 | -14.8 | 3.34 | 920 |  |  | CC(C)C(=O)Nc1nc(-c2ccc(O)cc2O)cs1
1100 |  | 0 | -4.54 |  |  |  | O=C(CN1CCC(Cc2ccccc2)CC1)N1CCN(c2ccc(O)cc2)CC1
5.4 |  |  |  | 1020 | 3.52 | Active | COc1ccccc1C(=O)N1CCN(c2ccc(O)cc2)CC1
